Measurements taken from patent publication US8895547B2, “Substituted phenyl-oxathiazine derivatives, method for producing them, drugs containing said compounds and the use thereof” (Sanofi, priority 2011, dated 2014).

Molecular target: T1, human 11β-HSD1 (Homo sapiens, UniProt P28845)
T1 construct: host or cells: microsome fraction
Assay: Enzymatic 11beta-HSD1 test (SPA-based detection)
Format: biochemical
Conditions: human 11β-HSD1 microsome fraction, [1,2-3H]-cortisone, NADPH, 37° C. 1 hour
Experimental: Enzymatic 11beta-HSD1 test:
To measure the activity of the compounds, an SPA-based detection method (Solly et al. 2005) was employed. First of all, 20 μl of the human 11β-HSD1 microsome fraction (0.2 μg of protein), prepared in 50 mM HEPES, 0.1% BSA (w/v), were applied to a plate with 384 wells. The test compounds (0.09 μl) were applied to the assay plate in 100% DMSO. The reaction was started by addition of 20 μl of [1,2-^3H]-cortisone (0.1 μCi/[…]) in assay buffer comprising 25 mM HEPES, 100 mM KCl, 5 mM NaCl, 2 mM MgCl2 and 0.25 mM NADPH. The plate was agitated at 37° C. for 1 hour. At the same time, a stop solution comprising 20 mg/ml SPA-PVT beads, 1.6 mg/ml monoclonal cortisol antibody and 0.01 mM SSR110887 (inhibitor from the Biovitrium patent) in 50 mM HEPES, 1 M NaCl and 1 M KCl was stirred at room temperature. To stop the reaction, 25 μl of the stop solution were added to each well. The plate was agitated gently at room temperature for 1 further hour and then centrifuged at 500 gav for 1 minute, in order that the SPA beads could settle out. The plate was then read in a Wallac-1450-Microbeta unit with a standard SPA program (counting time 1 min/well). The comparative compound was glycyrrhetinic acid.
Protein and radioactive substrate were dispensed with a Biomek FX unit (Beckman Coulter) for handling liquids. The test compounds were added with a Cybi-Well equipped with a 90 nl pin tool (CyBio).
Lit.: Solly S, Mundt S S, Zokian H J, Juy-Fang Ding G, Hermanowski-Vosatka A, Strulovici B and Zheng W. High-throughput screening of 11β-Hydroxysteroid dehydrogenase type 1 in scintillation proximity format. Assay Drug Dev Technol 2005; 3:377-384.

T1 sequence (P28845 whole entry): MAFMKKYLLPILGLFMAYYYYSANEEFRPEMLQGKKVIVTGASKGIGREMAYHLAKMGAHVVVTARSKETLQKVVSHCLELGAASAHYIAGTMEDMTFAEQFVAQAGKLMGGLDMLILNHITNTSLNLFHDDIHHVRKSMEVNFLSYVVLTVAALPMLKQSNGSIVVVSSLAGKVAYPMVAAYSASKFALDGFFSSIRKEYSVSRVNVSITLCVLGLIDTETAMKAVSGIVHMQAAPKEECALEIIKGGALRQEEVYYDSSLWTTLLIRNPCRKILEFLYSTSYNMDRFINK

Row | SMILES | IC50 [nM]
1 | C[C@H](NC1=NS(=O)(=O)C(c2ccc(C(C)(C)C)cc2)C(C)(C)O1)c1ccccc1F (stereo partly drawn) [Compound 59, [5-(4-tert-Butylphenyl)-6,6-dimethyl-4,4-dioxo-5,6-dihydro-4H-4lambda6-[1,4,3]oxathiazin-2-yl]-[(S)-1-(2-fluorophenyl)ethyl]amine] | 55
2 | CC(C)(C)c1ccc(C2C(C)(C)OC(N[C@@H](CCO)c3ccccc3)=NS2(=O)=O)cc1 (stereo partly drawn) [Compound 60, (S)-3-[5-(4-tert-Butylphenyl)-6,6-dimethyl-4,4-dioxo-5,6-dihydro-4H-4lambda6-[1,4,3]oxathiazin-2-ylamino]-3-phenylpropan-1-ol] | 43
3 | CC(C)(C)c1ccc(C2(C)C(C)(C)OC(N[C@@H](CCO)c3ccccc3)=NS2(=O)=O)cc1 (stereo partly drawn) [Compound 62, (S)-3-[5-(4-tert-Butylphenyl)-5,6,6-trimethyl-4,4-dioxo-5,6-dihydro-4H-4lambda6-[1,4,3]oxathiazin-2-ylamino]-3-phenylpropan-1-ol] | 47
4 | CC1(C)OC(NC2CCCCC2)=NS(=O)(=O)C1c1ccccc1 (centres unmarked) [Example 1, Cyclohexyl-(6,6-dimethyl-4,4-dioxo-5-phenyl-5,6-dihydro-4H-4lambda6-[1,4,3]oxathiazin-2-yl)-amine] | 113
5 | CC1(C)OC(NC2CCCCC2)=NS(=O)(=O)C1c1ccc(-c2ccccc2)cc1 (centres unmarked) [Example 3, (5-Biphenyl-4-yl-6,6-dimethyl-4,4-dioxo-5,6-dihydro-4H-4lambda6-[1,4,3]oxathiazin-2-yl)-cyclohexyl-amine] | 1270
6 | CC1(C)OC(N[C@@H](CCO)c2ccccc2)=NS(=O)(=O)C1c1ccc(O)cc1 (stereo partly drawn) [Example 5, 4-[2-((S)-3-Hydroxy-1-phenyl-propylamino)-6,6-dimethyl-4,4-dioxo-5,6-dihydro-4H-4lambda6-[1,4,3]oxathiazin-5-yl]-phenol] | 1670
7 | CC1(C)OC(N[C@@H](CCO)c2ccccc2)=NS(=O)(=O)C1c1ccc(-c2ccccc2)cc1 (stereo partly drawn) [Example 12, (S)-3-(5-Biphenyl-4-yl-6,6-dimethyl-4,4-dioxo-5,6-dihydro-4H-4lambda6-[1,4,3]oxathiazin-2-ylamino)-3-phenyl-propan-1-ol] | 45
8 | CC1(C)OC(NC2CCCCC2)=NS(=O)(=O)C1c1cccc(Br)c1 (centres unmarked) [Example 13, [5-(3-Bromophenyl)-6,6-dimethyl-4,4-dioxo-5,6-dihydro-4H-4lambda6-[1,4,3]oxathiazin-2-yl]-cyclohexyl-amine] | 47
9 | CC1(C)OC(N[C@@H](CCO)c2ccccc2)=NS(=O)(=O)C1c1cccc(-c2cncnc2)c1 (stereo partly drawn) [Example 14, (S)-3-[6,6-Dimethyl-4,4-dioxo-5-(3-pyrimidin-5-yl-phenyl)-5,6-dihydro-4H-4lambda6-[1,4,3]oxathiazin-2-ylamino]-3-phenyl-propan-1-ol] | 32
10 | CC1(C)OC(NC2CCCCC2)=NS(=O)(=O)C1(C)c1ccccc1 (centres unmarked) [Example 18, Cyclohexyl-(5,6,6-trimethyl-4,4-dioxo-5-phenyl-5,6-dihydro-4H-4lambda6-[1,4,3]oxathiazin-2-yl)-amine] | 36
11 | CC1(C)OC(NC2CCCCC2)=NS(=O)(=O)C1c1cccc(OCc2ccccc2)c1 (centres unmarked) [Example 19, [5-(3-Benzyloxy-phenyl)-6,6-dimethyl-4,4-dioxo-5,6-dihydro-4H-4lambda6-[1,4,3]oxathiazin-2-yl]-cyclohexyl-amine] | 352
12 | CC1(C)OC(NC2CCCCC2)=NS(=O)(=O)C1c1cccc(O)c1 (centres unmarked) [Example 22, 3-(2-Cyclohexylamino-6,6-dimethyl-4,4-dioxo-5,6-dihydro-4H-4lambda6-[1,4,3]oxathiazin-5-yl)-phenol] | 163
13 | COc1cccc(C2C(C)(C)OC(NC3CCCCC3)=NS2(=O)=O)c1 (centres unmarked) [Example 23, Cyclohexyl-[5-(3-methoxy-phenyl)-6,6-dimethyl-4,4-dioxo-5,6-dihydro-4H-4lambda6-[1,4,3]oxathiazin-2-yl]-amine] | 114

Results, then the molecule that gave them:

Row | IC50 [nM] | SMILES
14 | 21 | CC(C)(C)c1ccc(C2C(C)(C)OC(N[C@@H](CCO)c3ccccc3F)=NS2(=O)=O)cc1 (stereo partly drawn) [Compound 58, (S)-3-[5-(4-tert-Butylphenyl)-6,6-dimethyl-4,4-dioxo-5,6-dihydro-4H-4lambda6-[1,4,3]oxathiazin-2-ylamino]-3-(2-fluorophenyl)propan-1-ol]
15 | 14 | CC(C)(C)c1ccc(C2(C)C(C)(C)OC(N[C@@H](CCO)c3ccccc3F)=NS2(=O)=O)cc1 (stereo partly drawn) [Compound 61, (S)-3-[5-(4-tert-Butylphenyl)-5,6,6-trimethyl-4,4-dioxo-5,6-dihydro-4H-4lambda6-[1,4,3]oxathiazin-2-ylamino]-3-(2-fluorophenyl)propan-1-ol]
16 | 32 | C[C@H](NC1=NS(=O)(=O)C(C)(c2ccc(C(C)(C)C)cc2)C(C)(C)O1)c1ccccc1F (stereo partly drawn) [Compound 63, [5-(4-tert-Butylphenyl)-5,6,6-trimethyl-4,4-dioxo-5,6-dihydro-4H-4lambda6-[1,4,3]oxathiazin-2-yl]-[(S)-1-(2-fluorophenyl)ethyl]amine]
17 | 17 | CC1(C)OC(N[C@@H](CCO)c2ccccc2)=NS(=O)(=O)C1c1ccccc1 (stereo partly drawn) [Example 2, (S)-3-(6,6-Dimethyl-4,4-dioxo-5-phenyl-5,6-dihydro-4H-4lambda6-[1,4,3]oxathiazin-2-ylamino)-3-phenyl-propan-1-ol]
18 | 14 | CC1(C)OC(N[C@@H](CCO)c2ccccc2)=NS(=O)(=O)C1c1ccc(OCc2ccccc2)cc1 (stereo partly drawn) [Example 4, (S)-3-[5-(4-Benzyloxy-phenyl)-6,6-dimethyl-4,4-dioxo-5,6-dihydro-4H-4lambda6-[1,4,3]oxathiazin-2-ylamino]-3-phenyl-propan-1-ol]
19 | 29 | COc1ccc(C2C(C)(C)OC(N[C@@H](CCO)c3ccccc3)=NS2(=O)=O)cc1 (stereo partly drawn) [Example 6, (S)-3-[5-(4-Methoxy-phenyl)-6,6-dimethyl-4,4-dioxo-5,6-dihydro-4H-4lambda6-[1,4,3]oxathiazin-2-ylamino]-3-phenyl-propan-1-ol]
20 | 20 | CC1(C)OC(N[C@@H](CCO)c2ccccc2)=NS(=O)(=O)C1c1cccc(Br)c1 (stereo partly drawn) [Example 7, (S)-3-[5-(3-Bromophenyl)-6,6-dimethyl-4,4-dioxo-5,6-dihydro-4H-4lambda6-[1,4,3]oxathiazin-2-ylamino]-3-phenyl-propan-1-ol]
21 | 22 | CC1(C)OC(N[C@@H](CCO)c2ccccc2)=NS(=O)(=O)C1c1cccc(-c2ccccc2)c1 (stereo partly drawn) [Example 8, (S)-3-(5-Biphenyl-3-yl-6,6-dimethyl-4,4-dioxo-5,6-dihydro-4H-4lambda6-[1,4,3]oxathiazin-2-ylamino)-3-phenyl-propan-1-ol]
22 | 22 | Cc1cccc(C2C(C)(C)OC(N[C@@H](CCO)c3ccccc3)=NS2(=O)=O)c1 (stereo partly drawn) [Example 9, (S)-3-(6,6-Dimethyl-4,4-dioxo-5-m-tolyl-5,6-dihydro-4H-4lambda6-[1,4,3]oxathiazin-2-ylamino)-3-phenyl-propan-1-ol]
23 | 15 | CC1(C)OC(N[C@@H](CCO)c2ccccc2)=NS(=O)(=O)C1c1cccc(Cc2ccccc2)c1 (stereo partly drawn) [Example 10, (S)-3-[5-(3-Benzyl-phenyl)-6,6-dimethyl-4,4-dioxo-5,6-dihydro-4H-4lambda6-[1,4,3]oxathiazin-2-ylamino]-3-phenyl-propan-1-ol]
24 | 9 | Cc1ccc(C2C(C)(C)OC(N[C@@H](CCO)c3ccccc3)=NS2(=O)=O)cc1 (stereo partly drawn) [Example 11, (S)-3-(6,6-Dimethyl-4,4-dioxo-5-p-tolyl-5,6-dihydro-4H-4lambda6-[1,4,3]oxathiazin-2-ylamino)-3-phenyl-propan-1-ol]
25 | 11 | CC1(C)OC(N[C@@H](CCO)c2ccccc2)=NS(=O)(=O)C1c1ccccc1Cl (stereo partly drawn) [Example 15, (S)-3-[5-(2-Chlorophenyl)-6,6-dimethyl-4,4-dioxo-5,6-dihydro-4H-4lambda6-[1,4,3]oxathiazin-2-ylamino]-3-phenyl-propan-1-ol]
26 | 11 | Cc1ccccc1C1C(C)(C)OC(N[C@@H](CCO)c2ccccc2)=NS1(=O)=O (stereo partly drawn) [Example 16, (S)-3-(6,6-Dimethyl-4,4-dioxo-5-o-tolyl-5,6-dihydro-4H-4lambda6-[1,4,3]oxathiazin-2-ylamino)-3-phenyl-propan-1-ol]
27 | 21 | CC1(C)OC(N[C@@H](CCO)c2ccccc2)=NS(=O)(=O)C1c1cccc(Cl)c1 (stereo partly drawn) [Example 20, (S)-3-[5-(3-Chloro-phenyl)-6,6-dimethyl-4,4-dioxo-5,6-dihydro-4H-4lambda6-[1,4,3]oxathiazin-2-ylamino]-3-phenyl-propan-1-ol]
28 | 21 | CC1(C)OC(N[C@@H](CCO)c2ccccc2)=NS(=O)(=O)C1c1cccc(OCc2ccccc2)c1 (stereo partly drawn) [Example 24, (S)-3-[5-(3-Benzyloxy-phenyl)-6,6-dimethyl-4,4-dioxo-5,6-dihydro-4H-4lambda6-[1,4,3]oxathiazin-2-ylamino]-3-phenyl-propan-1-ol]
29 | 13 | C[C@H](NC1=NS(=O)(=O)C(c2cccc(Br)c2)C(C)(C)O1)c1ccccc1F (stereo partly drawn) [Example 27, [5-(3-Bromophenyl)-6,6-dimethyl-4,4-dioxo-5,6-dihydro-4H-4lambda6-[1,4,3]oxathiazin-2-yl]-[(S)-1-(2-fluorophenyl)-ethyl]-amine]
